The source of these data is ChEMBL document CHEMBL1201862, “PubChem BioAssay data set” (2004).

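Tested at 5 concentrations; 48 h exposure; 96-well plates; endpoints linearly interpolated, else capped at highest concentration. At the GI50, growth is halved.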 The source made the active and inactive calls. No stated cut-off is given here; in the data, active = GI50 up to about 1.1 µM and inactive = higher.

Common to all, as to experiment: growth of human tumour cells (NCI), 48 h
Assay [1] deals with 786-0.
Assay [2] deals with ACHN.
Assay [3] deals with BT-549.
Assay [4] relates to CCRF-CEM.
Assay [5] deals with HCT-116.
Assay [6] concerns HCT-15.
The subject of assay [7] is HOP-62.
Assay [8] deals with HT-29.
Assay [9] has as its system Hs-578T.
For assay [10], the system named is IGROV-1.
Assay [11] deals with K562.
The subject of assay [12] is LOX IMVI.
Assay [13] has as its system M14.
Assay [14] deals with MDA-MB-231.
The subject of assay [15] is MDA-N.
In assay [16] the test system is NCI-H23.
For assay [17], the system named is SF-539.
In assay [18] the test system is SK-MEL-28.
Assay [19] relates to SNB-19.
Assay [20] deals with U-251.

Consider `O=c1[nH]c2nc3ccccc3c(=O)n2/c1=C/c1cccs1`, for which the GI50 is > 100 µM (inactive) in assay [1]; > 100 µM (inactive) in assay [2]; > 100 µM (inactive) in [3]; > 100 µM (inactive) in assay [4]; > 100 µM (inactive) in assay [5]; > 100 µM in [6]. The GI50 in assay [7] was > 100 µM (inactive); in [8] it was > 100 µM (inactive); in assay [9] it was 67 µM (inactive); in assay [10], > 100 µM (inactive); in assay [11] it was > 100 µM (inactive); in assay [12], > 100 µM (inactive). Further, the GI50 in assay [13], in assay [14], in assay [15], in assay [16], in assay [17] and in assay [18] was > 100 µM (inactive) throughout. Further, the GI50 in assay [19] and in assay [20] was > 100 µM (inactive) in each case.

For `CCO/C=N/C1=C(C#N)SC2=N/C(=C\c3ccccc3)C(=O)N21`, the GI50 was > 100 µM (inactive) in [1]; > 100 µM (inactive) in assay [2]; > 100 µM (inactive) in assay [3]; 60.5 µM (inactive) in assay [4]; > 100 µM (inactive) in assay [5]; > 100 µM in assay [6]. The GI50 was > 100 µM (inactive) in assay [7]; > 100 µM (inactive) in assay [8]; > 100 µM (inactive) in assay [9]; > 100 µM (inactive) in assay [10]; 41.9 µM (inactive) in [11]; > 100 µM (inactive) in assay [12]. Also, the GI50 in assay [13], in [14], in [15], in assay [16], in [17] and in [18] was > 100 µM (inactive) each time. The GI50 in [19] and in [20] was > 100 µM (inactive) each time.

As to `CCN(CC)CCC(=O)c1ccc(Sc2ccc(F)cc2)cc1`, the GI50 in assay [1] was 10.8 µM (inactive); in assay [2], 18.3 µM (inactive); in assay [3] it was 17.2 µM (inactive); in [4] it was 7.28 µM (inactive); in [5], 18.2 µM (inactive); in assay [6], 17.3 µM. The GI50 was 18.7 µM (inactive) in assay [7]; 21.8 µM (inactive) in [8]; 15.8 µM (inactive) in assay [9]; 18.2 µM (inactive) in assay [10]; 52.8 µM (inactive) in assay [11]; 17.4 µM (inactive) in assay [12]. The GI50 in assay [13] was 20.5 µM (inactive); in assay [14], 16.9 µM (inactive); in assay [15], 25 µM (inactive); in assay [16], 17.7 µM (inactive); in [17], 17.7 µM (inactive); in [18], 17.8 µM (inactive). Moreover, the GI50 is 17.6 µM (inactive) in assay [19] and 16 µM (inactive) in assay [20].

For the compound `COc1ccc(N/N=C2\C3=C(CCC(C)(C)O3)C(=O)c3ccccc32)cc1`, the GI50 in assay [1] was 18.3 µM (inactive); in [2], 13.7 µM (inactive); in assay [3], 19.1 µM (inactive); in [4], 16 µM (inactive); in [5], 14.1 µM (inactive); in [6] it was 13.7 µM. The GI50 is 20.9 µM (inactive) in [7]; 13.6 µM (inactive) in assay [8]; 19.1 µM (inactive) in [9]; 15.2 µM (inactive) in assay [10]; 15.9 µM (inactive) in assay [11]; 16.2 µM (inactive) in [12]. Further, the GI50 was 20.7 µM (inactive) in assay [13]; 22.2 µM (inactive) in assay [14]; 15.6 µM (inactive) in [15]; 18 µM (inactive) in [16]; 24.4 µM (inactive) in [17]; 22.2 µM (inactive) in assay [18]. Further, the GI50 was 21.9 µM (inactive) in assay [19] and 19.2 µM (inactive) in [20].

`CCC(C)C(C(=O)N/N=C1/SCC(=O)N1c1ccccc1)C(=O)N/N=C1/SCC(=O)N1c1ccccc1` (stereo not given): the GI50 in assay [1] is > 100 µM (inactive); in [2], > 100 µM (inactive); in assay [3] it was > 100 µM (inactive); in assay [4], 46.1 µM (inactive); in [5], 23 µM (inactive); in [6], > 100 µM. The GI50 is 79.3 µM (inactive) in [7]; > 100 µM (inactive) in assay [8]; 32.5 µM (inactive) in [9]; > 100 µM (inactive) in assay [10]; > 100 µM (inactive) in [11]; 38.4 µM (inactive) in assay [12]. The GI50 in assay [13] is 47.1 µM (inactive); in assay [14], 28.8 µM (inactive); in assay [15], 27.2 µM (inactive); in [16] it was 36.6 µM (inactive); in assay [17], > 100 µM (inactive); in assay [18], 16.9 µM (inactive). Further, the GI50 was > 100 µM (inactive) in assay [19] and 36.8 µM (inactive) in [20].

`CC1=C(C(=O)NNC(=O)c2ccccc2)CC(C(=O)NNC(=O)c2ccccc2)=C(C)N1`: the GI50 in assay [1] was > 100 µM (inactive); in assay [2] it was > 100 µM (inactive); in assay [3] it was > 100 µM (inactive); in assay [4], > 100 µM (inactive); in assay [5], > 100 µM (inactive); in [6], > 100 µM. Further, the GI50 in assay [7], in assay [8], in assay [9], in [10], in [11] and in [12] was > 100 µM (inactive) in each case. The GI50 in assay [13], in assay [14], in assay [15], in [16], in [17] and in assay [18] was > 100 µM (inactive) throughout. The GI50 in assay [19] and in assay [20] was > 100 µM (inactive) throughout.

For `Brc1ccccc2cc(-c3ccccc3)nc1-2`, the GI50 is 1.92 µM (inactive) in assay [1]; 3.37 µM (inactive) in assay [2]; 19.3 µM (inactive) in assay [3]; 2.47 µM (inactive) in assay [4]; 1.85 µM (inactive) in assay [5]; 2.24 µM in [6]. For the same compound, the GI50 in assay [7] was 9.93 µM (inactive); in assay [8], 4.5 µM (inactive); in [9], 6.87 µM (inactive); in [10], 9.12 µM (inactive); in assay [11] it was 2.7 µM (inactive); in assay [12], 2.23 µM (inactive). Further, the GI50 in assay [13] was 3 µM (inactive); in assay [14], 2.6 µM (inactive); in assay [15] it was 14.7 µM (inactive); in assay [16], 3.26 µM (inactive); in [17], 4.8 µM (inactive); in assay [18], 3.94 µM (inactive). Moreover, the GI50 in assay [19] was 13.6 µM (inactive); in assay [20], 7.87 µM (inactive).
